These results are taken from paper PMC10474154, “Pro-arrhythmic effect of escitalopram and citalopram at serum concentrations commonly observed in older patients – a study based on a cohort of 19,742 patients” (eBioMedicine, 2023).

Values joined by “and” are separate entries in the source; they are usually repeats but may differ in a detail not shown here. Equal entries are not always repeated. “Also recorded” adds a separate entry of the source. Where two headings read alike, the source gives them in different places.

The conditions of data set [1]: human, in vivo.
Source text: (§1) Information regarding age, sex, daily dose and time between last dose and blood sampling was also collected from the database. For patients with multiple TDM measurements, only the last measurement was included. Included patients were divided into four subgroups based on age: (a) < 18, (b) 18–64, (c) 65–80, and (d) > 80 years.
(§2) Measured serum concentrations represent total concentrations, i.e. the sum of bound and unbound drug.
(§3) All patients were included unless they met the exclusion criteria. Exclusion criteria were: (a) serum concentration of citalopram, escitalopram and/or demethylcitalopram outside the limits of quantification (LOQ), (b) blood sampling not performed at trough levels, outside the time interval of 10–28 h after last dose intake, (c) prescribed dose of citalopram or escitalopram less/more than 2.5–80 mg or 2.5–60 mg, respectively, and (d) detection of interacting drugs in the citalopram/escitalopram serum sample. In detail, we screened the samples for CYP2C19 inducers carbamazepine, phenobarbital and phenytoin and the CYP2C19 or –2D6 inhibitors bupropion, fluoxetine, fluvoxamine, paroxetine or levomepromazine.
(§4) Differences in absolute serum concentrations of citalopram, escitalopram and metabolites as well as differences in time between last blood sampling and daily dose was investigated across the age subgroups using Kruskal Wallis test followed by Dunn's test. P-values were Bonferroni corrected by multiplying the P-value by the number of statistical analyses that were performed.
On the set-up of data set [2]: method as in earlier work. Conditions: cited from earlier work.
On the set-up of data set [3]: method as in PMID 19841156. Conditions: cited from earlier work.
The conditions of data set [4]: cited from earlier work.
Data set [5] deals with human induced pluripotent stem cell-derived cardiomyocytes (hiPSC-CM). As to the kind of experiment: Action potential recordings in hiPSC-CM with voltage sensitive dye (FluoVolt, CellOPTIQ). It counts as cell-based. As to the method:
Cryopreserved human induced pluripotent stem cell-derived cardiomyocytes (hiPSC-CM): CDI iCell cardiomycytes^2 01434 CardioTox Kit (Catalog #: R1222, FujiFilm CDI, Madison, WI) were kept in liquid nitrogen until culture according to instructions by the manufacturer. […] All studies were conducted at Clyde Biosciences (Glasgow, Scotland). Cells were cultured in 96-well glass-bottomed plates (MatTek, Ashland, Massachusetts) coated with fibronectin ([…] in PBS supplemented with Ca2+ and Mg2+) (Sigma, St. Louis, Missouri) in a humidified incubator at 37 °C for 3 h. The cell density was 50,000 cells/cm2 (25,000 cells/well). The subsequent maintenance protocols followed manufacturer's instructions using their maintenance medial (FujiFilm CDI Cardiomyocytes Maintenance Media). Experiments were performed between days 4–8. Prior to beginning an experiment, cells were washed in serum-free media (SF media), specifically DMEM (Gibco, ThermoFisher Scientific, UK) supplemented with 10 mM galactose and 10 mM sodium pyruvate.
hiPSC-CM were loaded with 5 μM FluoVolt (ThermoFisher) and the multiwell plate was placed in the CellOPTIQ platform (at Clyde Biosciences Ltd, Glasgow, Scotland). The FluoVolt fluorescence signal was recorded using a 40 × (NA 0.6) objective lens. Excitation wavelength was 480 ± 10 nm, and emitted light was collected by a photomultiplier (PMT) at 510–560 nm. Drugs were supplied by Santa Cruz Biotechnology (Germany) and Toronto Research Chemicals (Canada). Their identity and concentration were blinded from the laboratory personnel. […] 30 min after exposure to the tested drug or vehicle a 20 s recording was taken. Offline analysis was performed using proprietary software (CellOPTIQ®). The following (averaged) parameters were obtained from the AP recordings of 4 independent replicates: cycle length (CL, […]); rise time (Trise, ms) between 10 and 90% of the AP amplitude, and AP durations (APD, ms) from 10% to 90% repolarization at 10% intervals. In this study rate-correction was based on previous studies.[14]
Drugs were tested at 3 concentrations with matched vehicle controls for each concentration. The chosen escitalopram (S-citalopram) concentration was 60 nM. Assuming no protein binding in the in vitro model, this corresponds to a total serum concentration of 136 nM, as escitalopram protein binding is reported at 55–56% (most commonly 56%, which is used in the present study).[15], [16], [17] […] This could vary with age and clinical conditions.[20] […] In a large therapeutic drug monitoring (TDM) study 60 nM was the average total concentration in patients with normal escitalopram metabolism through CYP2C19, and 136 nM was below the average total concentration in poor metabolizers.[7] After administration of racemic citalopram, R-citalopram is reported to be 3 times higher than S-citalopram in a publication by Ji et al.[22] The typical concentration of R-citalopram as well as the S-/R-demethylcitalopram and S-/R-didemethylcitalopram metabolites, were calculated according to ratios from their paper.[22]
Shapiro Wilk tests were used to determine whether the data in this study were normally distributed based on a least-squares fit to a normal function, while Brown–Forsythe test was used to verify homogeneity of variance (Origin version 9, OriginLab Corp., Northampton, Massachusetts). […] Statistical tests were made using a paired t-tests for differences between absolute values, with P-values adjusted for multiple comparisons using the Benjamini-Hochberg procedure (one-way ANOVA). The relationship between AP duration at 90% of repolarization (APD90) and CL or diastolic interval was fit to single or double exponential functions (Origin version 9).

The subject of the next data set is plasma protein. Further details: method as in PMID 17375980. Conditions: listed as escitalopram; cited from earlier work.
For data set [6] the following is noted: after intake of 20 mg; cited from earlier work.
A short description of data set [7]: Therapeutic drug monitoring (TDM) serum concentrations in patients. Conditions: escitalopram users.
Source text: as §1, §2, §3, §4

Consider `N#Cc1ccc2c(c1)COC2(CCCN)c1ccc(F)cc1` (stereo not drawn) [Didemethylcitalopram, didemethylcitalopram], for which, in data set [1], the “Serum concentration, 10% percentile” value was 0.00082 µM; the “Serum concentration, 25% percentile” value is 0.00172 µM; the “Serum concentration, 50% percentile” value was 0.00347 µM; the “Serum concentration, 75% percentile” value was found to be 0.0059 µM. In data set [1], the “Serum concentration, 90% percentile” value was determined as 0.00965 µM; the “Serum concentration, maximum” value came out at 0.03533 µM; the “Serum concentration, minimum” value stood at 0.00034 µM. Moreover, the “Serum concentrations associated with sudden death in dogs, relative to humans” value in data set [2] was 39–155 times.

On to `CN(C)CCC[C@@]1(c2ccc(F)cc2)OCc2cc(C#N)ccc21` [S-citalopram], for which the “Clearance, typical value (CLTV)” value in data set [3] (CYP2C19 normal/rapid metabolizer) was 26.0 L/h. Besides, the “Clearance, typical value (CLTV)” value in data set [3] (CYP2C19 poor/intermediate metabolizer) is on record as 19.8 L/h. In addition, in data set [3] (population PK model), the “Absorption rate constant, typical value (KaTV)” value was 0.8 h⁻¹ and the “Volume of distribution, typical value (VTV)” value is given as 947 L. Further, in data set [4], the “Serum concentrations per dose, patients >65 years versus adults <40 years” value is given as 1.4 times. In addition, in data set [4] (large TDM study), the “Average total concentration in CYP2C19 poor metabolizers” value is reported as above 136 nM and the “Average total concentration in patients with normal escitalopram metabolism through CYP2C19” value is 60 nM. In addition, the “Time of maximum concentration after intake (Tmax)” value in data set [4] (listed as escitalopram) is 3 to 4 h and 3.0 ± 1.5 h. The “% of serum concentrations above 136 nM” value in data set [1] is recorded as 5.4-15.9%. Besides, the “Calculated total serum concentration corresponding to a free concentration of 60 nM (potential pro-arrhythmic activity)” value in data set [5] (assuming 56% plasma protein binding) was 136 nM. Besides, in data set [5] (hiPSC-CM, 10 times typical concentrations), the Triangulation effect entry is “substantial increase”. For the same compound, the “% Change of cycle length from baseline” value in data set [5] (hiPSC-CM, 10x clinical concentration) is given as -2.06±5.36%. In addition, in data set [5] (hiPSC-CM, 100x clinical concentration), the “% Change of cycle length from baseline” value is “Quiescent”. In data set [5] (hiPSC-CM, 30 min exposure), the “Concentration that increased late repolarisation (APD90)” value is 0.06 µM and the “Concentration that increased triangulation (APD90-APD30) of the action potential” value turned out to be 0.06 µM. The “Effect on cycle length” value in data set [5] (hiPSC-CM, all tested concentrations) is “not affected”. Besides, the “% Change of cycle length from baseline” value in data set [5] (hiPSC-CM, clinical concentration) is listed as 2.14±4.47%. Further, the “Electrical activity of the cells” value in data set [5] (hiPSC-CM, highest concentrations (100 times typical)) is “electrically quiescent”. Moreover, in data set [5] (hiPSC-CM, increasing concentrations), the “Depolarisation (phase 0) measured by TRise” value is “No changes; also recorded: No significant increase”. The “Early and medium repolarisation (APD30 and APD50)” value in data set [5] (hiPSC-CM, intermediate concentrations) was “shortening”. In addition, the “Triangulation (APD90-APD30) effect” value in data set [5] (hiPSC-CM, low concentrations) is “significantly increased”. Also, the “Increase in APD90” value in data set [5] (hiPSC-CM, lowest S-citalopram concentration (60 nM)) amounted to 21.9 ms. Further, the Late repolarisation entry in data set [5] (hiPSC-CM, lowest tested concentrations) was “prolonged”. Also, the “QTc-prolongation corresponding to the APD90 increase” value in data set [5] (lowest S-citalopram concentration, translation per ref 33) was determined as 6.2 ms. In addition, the Plasma protein binding in the data set on plasma protein is 55–56% and 56%. The “FDA-reported QTc-prolongation” value in data set [6] was 6.6 ms. Moreover, in data set [7] (trough), the “Serum concentration, 10% percentile” value worked out at 0.021 µM; the “Serum concentration, 25% percentile” value came to 0.033 µM; the “Serum concentration, 50% percentile” value is 0.052 µM; the “Serum concentration, 75% percentile” value stood at 0.084 µM. In addition, in data set [7] (trough), the “Serum concentration, 90% percentile” value came to 0.126 µM; the “Serum concentration, maximum” value was 0.73 µM; the “Serum concentration, minimum” value was 0.007 µM. Moreover, in data set [7] (trough (10-28 h after dose)), the “Serum concentration, mean” value came out at 0.066 µM.
